Data reported in patent US7915300B2, “Cysteine protease inhibitors” (Medivir AB, priority 2004, dated 2011).
Like-named read-outs stand apart in the source and are kept apart here.

Assays:
cathepsin K [1] = target: T1, cathepsin K (Homo sapiens, UniProt P43235); experiment: Cathepsin K proteolytic activity, inhibition studies (Ki) with fluorogenic peptide substrate; format: biochemical; parameters: made in house; host or cells: not fixed: E coli, Pichia or Baculovirus systems named as options; conditions: side by side trials in the same assay system; read-out: Cathepsin K K^1
T1 sequence (P43235 115-329): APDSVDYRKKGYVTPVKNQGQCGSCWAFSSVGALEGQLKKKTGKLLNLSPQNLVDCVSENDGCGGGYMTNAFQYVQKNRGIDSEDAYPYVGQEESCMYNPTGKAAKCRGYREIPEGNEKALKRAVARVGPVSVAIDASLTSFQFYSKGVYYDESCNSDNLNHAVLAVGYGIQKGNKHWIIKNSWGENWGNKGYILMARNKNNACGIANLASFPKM
Protocol: Convenient assays for cathepsin K are carried out using human recombinant enzyme, such as that described in PDB.
The recombinant cathepsin K can be expressed in a variety of commercially available expression systems including E coli, Pichia and Baculovirus systems. The purified enzyme is activated by removal of the prosequence by conventional methods.
Standard assay conditions for the determination of kinetic constants used a fluorogenic peptide substrate, typically H-D-Ala-Leu-Lys-AMC, and were determined in either 100 mM Mes/Tris, pH 7.0 containing 1 mM EDTA and 10 mM 2-mercaptoethanol or 100 mMNa phosphate, imM EDTA, 0.1% PEG4000 pH 6.5 or 100 mM Na acetate, pH 5.5 containing 5 mM EDTA and 20 mM cysteine, in each case optionally with […] as stabiliser. The enzyme concentration used was 5 nM. The stock substrate solution was prepared at 10 mM in DMSO. Screens were carried out at a fixed substrate concentration of 60 μM and detailed kinetic studies with doubling dilutions of substrate from 250 μM. The total DMSO concentration in the assay was kept below 3%. […] Product fluorescence (excitation at 390 nm, emission at 460 nm) was monitored with a Labsystems Fluoroskan Ascent fluorescent plate reader. […]
Potential inhibitors are screened using the above assay with variable concentrations of test compound. […] Ki values were calculated according to equation 1 […]

cathepsin K [2] = target: T1, cathepsin K; conditions: value from WO 02057270; read-out: Ki indicated in WO 02057270; cited from earlier work

| SMILES | Ki (cathepsin K [1]) [nM] | Ki (cathepsin K [2]) [nM] |
| --- | --- | --- |
| CC(C)CC(NC(=O)c1ccc(Oc2ccccc2)cc1)C(=O)N1C[C@H](F)[C@H]2OCC(=O)[C@H]21 (stereo partly drawn) | 5.3 | – |
| CC(C)CC(NC(=O)c1ccc(Oc2ccccc2)cc1)C(=O)N1CC[C@H]2OCC(=O)[C@H]21 (stereo partly drawn) | 66 | 100 |
